Source: ChEMBL document CHEMBL1130654, “New phthalimide derivatives with potent analgesic activity: II” (1998)

How the values were obtained:
Format in all cases: functional
Mus musculus [1] = assay: Inhibition of acetic acid induced writhing in mice at dose of 6.25 mg/kg
Mus musculus [2] = assay: Inhibition of acetic acid induced writhing in mice at dose of 3.12 mg/kg
Mus musculus [3] = assay: Inhibition of acetic acid induced writhing in mice at dose of 12.5 mg/kg
Mus musculus [4] = assay: Compound was tested for hyperalgesia in mice induced by formalin expressed as time of licking at initial phase(up to 5 min) at dose 10 mg/kg
Mus musculus [5] = assay: Compound was tested for hyperalgesia in mice induced by formalin expressed as time of licking at late phase(up to 30 min) at dose 10 mg/kg
Mus musculus [6] = assay: Inhibition of acetic acid induced writhing in mice at dose of 1.56 mg/kg
Mus musculus [7] = assay: Inhibition of acetic acid induced writhing in mice at dose of 100 mg/kg
Mus musculus [8] = assay: Compound was tested for hyperalgesia in mice induced by formalin expressed as time of licking at late phase(up to 30 min) at 400 mg/kg
Mus musculus [9] = assay: Compound was tested for hyperalgesia in mice induced by formalin expressed as time of licking at initial phase(up to 5 min) at 400 mg/kg
Mus musculus [10] = assay: Inhibition of acetic acid induced writhing in mice at dose of 50 mg/kg
Mus musculus [11] = assay: Inhibition of acetic acid induced writhing in mice at dose of 200 mg/kg
Mus musculus [12] = assay: Compound was tested for hyperalgesia in mice induced by formalin expressed as time of licking at initial phase(up to 5 min)at dose 25 mg/kg
Mus musculus [13] = assay: Compound was tested for hyperalgesia in mice induced by formalin expressed as time of licking at late phase(up to 30 min) at dose 25 mg/kg
Mus musculus [14] = assay: Inhibition of acetic acid induced writhing in mice at dose of 25 mg/kg
Mus musculus [15] = assay: Inhibition of acetic acid induced writhing in mice at dose of 25.0 mg/kg

| Compound | inhibition in vivo at 6.25 mg/kg (Mus musculus [1]) [%] | inhibition in vivo at 3.12 mg/kg (Mus musculus [2]) [%] | inhibition in vivo at 12.5 mg/kg (Mus musculus [3]) [%] | inhibition in vivo at 1.56 mg/kg (Mus musculus [6]) [%] | ID50 (Mus musculus [2]) | also measured |
| --- | --- | --- | --- | --- | --- | --- |
| Cc1ccc(-c2noc(CN3C(=O)c4ccccc4C3=O)n2)cc1 | 62.4 | 16.1 | 72.5 | – | – | ID50 (Mus musculus [1]): 7.2 |
| CN1CC[C@]23c4c5ccc(O)c4O[C@H]2[C@@H](O)C=C[C@H]3[C@H]1C5 [MORPHINE] | – | – | – | – | – | Time of licking (Mus musculus [4]): 41 s; Time of licking (Mus musculus [5]): 0 s |
| Cc1ccccc1-c1noc(CN2C(=O)c3ccccc3C2=O)n1 | 80.5 | 76.5 | – | 12.1 | 3.1 | – |
| CC(=O)Oc1ccccc1C(=O)O [ASPIRIN] | – | – | – | – | – | ID50 (Mus musculus [7]): 80.8; inhibition in vivo at 100 mg/kg (Mus musculus [7]): 61.7%; Time of licking (Mus musculus [8]): 0 s; Time of licking (Mus musculus [9]): 48 s; inhibition in vivo at 50 mg/kg (Mus musculus [10]): 38.2%; inhibition in vivo at 200 mg/kg (Mus musculus [11]): 74% |
| Cc1cccc(-c2noc(CN3C(=O)c4ccccc4C3=O)n2)c1 | 79.2 | 67.1 | – | 25.5 | 2.9 | – |
| O=C1c2ccccc2C(=O)N1Cc1nc(-c2ccccc2)no1 | 73.8 | 67.1 | – | 38.9 | 2.2 | Time of licking (Mus musculus [12]): 84 s; Time of licking (Mus musculus [13]): 143 s |
| O=C1c2ccccc2C(=O)N1Cc1nc(-c2ccc([N+](=O)[O-])cc2)no1 | 62.9 | 47.4 | – | 29.8 | 4.1 | – |
| O=C1c2ccccc2C(=O)N1Cc1nc(-c2ccc(Cl)cc2)no1 | 16.3 | – | 35.1 | – | – | ID50 (Mus musculus [3]): 20.3; inhibition in vivo at 25 mg/kg (Mus musculus [14]): 59.6% |
| COc1ccc(-c2noc(CN3C(=O)c4ccccc4C3=O)n2)cc1 | 41.9 | 20.7 | 53.3 | – | – | inhibition in vivo at 25 mg/kg (Mus musculus [15]): 62.6%; ID50 (Mus musculus [3]): 14.9 |
